Results: patent US20260209304A1, “INSULIN RECEPTOR ANTAGONIST” (The Board of Trustees of the Leland Stanford Junior …, priority 2022, published 2026)
Positions of bridges follow the written chain, without caps; N, C: chain ends. Chains are numbered I, II in the order given. No end group written: not given here.

Experiments:
insulin receptor (IR) = insulin receptor (IR) (Homo sapiens, UniProt P06213); experiment: Binding affinity of insulin-core mutants relative to the A13R mutation
human insulin receptor [1] = biological target: T1, human insulin receptor (Homo sapiens, UniProt P06213); experiment: Cell-based pAKT (Ser473) assay in NIH 3T3 cells overexpressing human insulin receptor; design: expressed in transfected cells; host or cells: NIH 3T3 cell line derived from IGF-1R knockout mice (gift from A. Morrione, Thomas Jefferson University)
Procedure: All the values are shown as mean±SD (n=4). EC50 and IC50 values were calculated by Prism 9 (GraphPad Software, California, USA) with nonlinear regression curve fitting of dose-response asymmetric equation.
Cell-based pAKT and phosphor-IR-beta Assays. The bioactivities of the analogs were evaluated through a cell-based pAKT (Ser473) assay or phospho-IR-beta (Tyr1150/1151) assay. Endogenous levels of pAKT or phosphor-IR-beta were measured in a human insulin receptor overexpressed NIH 3T3 cell line, derived from IGF-1R knockout mice (a generous gift from A. Morrione, Thomas Jefferson University). Cells were cultured in DMEM (Gibco) with 10% fetal bovine serum (FBS, Gibco), 100 U/mL penicillin-streptomycin (Gibco), 2 mg/mL puromycin (Thermo Fisher Scientific), and 1 mg/mL normocin (InvivoGen) at 37° C. under 5% CO2. For the assays, 30,000 cells per well and 100 μl per well, were plated in a 96-well plate with culture media containing 1% FBS. 20 hours later, the media was removed and 50 μl of culture media with different concentrations of native insulin or analog was pipetted into each well. […] After 4 hours of incubation, the plate was read in a SpectraMax iD5 plate reader (Molecular Devices) and the data were processed according to the manufacturer's protocol. […]

human insulin receptor [2] = biological target: T1, human insulin receptor; experiment: cell-based or functional assay

| Molecule | binding affinity relative to the A13R mutation (insulin receptor (IR)) | EC50 (human insulin receptor [1]) | Agonist Activity (nM), cell-based pAKT assay (human insulin receptor [2]) | Antagonist Activity (nM), cell-based pAKT assay (human insulin receptor [2]) |
| --- | --- | --- | --- | --- |
| I: FVNQHLCGSELVEALYLVCGERGFFYTPK / II: GIVEQCCHRICSLYQLENYCGGSLPETGG (disulfide I:7-II:7, I:19-II:20, II:6-II:11) [Ins-AC-10-9] | increased | 0.562 nM |  |  |
| I: GIVEQCCHRICSLYQLENYCGGSLPETGGGSLEEEWAQIQSEVWGRGSPSY / II: FVNQHLCGSELVEALYLVCGERGFFYTPK (disulfide I:6-I:11, I:7-II:7, I:20-II:19) [Ins-AC-10-11] | increased | 0.0115 nM |  |  |
| Ins-AC-10-9 (designed binder) chain 1: GIVEQCCHRICSLYQLENYCGGSLPETGG chain 2: FVNQHLCGSELVEALYLVCGERGFFYTPK |  |  | 0.562 nM |  |
| Ins-AC-10-11 (designed binder) chain 1: GIVEQCCHRICSLYQLENYCGGSLPETGGGSLEEEWAQIQSEVWGRGSPSY chain 2: FVNQHLCGSELVEALYLVCGERGFFYTPK |  |  | 0.0115 nM | 0.5 nM |
